Assay results taken from publication PMC8151276, “An Integrated Approach toward NanoBRET Tracers for Analysis of GPCR Ligand Engagement” (Molecules, 2021).

Molecular target: T1, TACR1 (Homo sapiens, UniProt P25103)
T1 construct: purchased Promega (in-house HiBiT-GPCR construct library, NanoBRET)
Test: NanoBRET screen HiBiT-TACR1 in HEK293
Type: binding
Method: Each tracer candidate was screened across the entire library of HiBiT-GPCR constructs using NanoBRET as the detection modality. As depicted in Figure 4A, the specificity of interactions was evaluated through decrease in BRET due to competitive displacement of a bound tracer by excess parental compound. Each tracer was analyzed for binding to each HiBiT-GPCR fusion in the absence and in the presence of competing parental compound. Briefly, HEK293 cells were transfected with HiBiT-GPCR constructs diluted into promoterless DNA to reduce expression and maximize translocation to the cell surface. Each tracer candidate was then screened at concentrations of 1 μM and 0.1 μM across cells expressing these fusions. Cells were treated for 1.5 h with tracer either alone or in the presence of 20 μM competing parental compound (i.e., control). BRET was measured upon addition of purified LgBiT and subsequent complementation with HiBiT genetically fused to a GPCR. The specificity of interactions was assessed through a decrease in BRET signal due to competitive displacement of the bound tracer. To further gauge the robustness of these interactions, the fold response over the control (i.e., BRETtracer/BRETcontrol) was calculated. We chose a 1.5-fold response, which translates to ≥7-fold signal over noise as the minimal threshold required to score an interaction as positive.
HiBiT-GPCR DNA constructs were diluted in 10 mM Tris pH 8 to a final concentration of 0.01 μg/μL, arrayed in 96-well plates and stored at −20 °C. For transfection, HEK293 cells were suspended in Opti-MEM (without phenol red) supplemented with 2% fetal bovine serum (Seradigm) and 100 units/mL penicillin–streptomycin (Gibco) at a final concentration of 220,000 cells/mL and dispensed into white 96-well plates at 90 μL/well. Subsequent transfections and screens were carried using an Agilent Bravo Automated Liquid Handling Platform. First, the 96-well HiBiT DNA arrays were diluted 25-fold in Opti-MEM (without serum or phenol red) to a final concentration of 0.0004 μg/μL and 20 μL of the diluted DNAs were transferred into new 96-well plates. Next, promoterless carrier DNA (1 μg/μL) was diluted 25-fold (0.04 μg/μL) and then dispensed into the diluted arrays at 20 μL/well. Following brief mixing, Viafect transfection reagent (Promega) diluted 16-fold into Opti-MEM was dispensed into the plates at 40 μL/well. After mixing by pipetting, plates were incubated for 10 min on the pipetting station deck. The DNA-transfection reagent complexes were then added to plates containing cells. To facilitate the screen, 10 μL of DNA-transfection reagent complexes were added in duplicates to the top 4 and bottom 4 rows, resulting in two identical 48-well arrays per plate. Plates with transfected cells were incubated for 18–20 h at 37 °C/5% CO2. A screen of each tracer across the entire library using two different concentrations requires duplicate plates of transfected cells. Depending on the number of tracers being screened, transfections can be scaled up using the same ratios. The next day, for each tracer, four 20× screening solutions in tracer dilution buffer (Promega) were prepared: two duplicates at final concentration of 20 μM and two duplicates at a final concentration of 2 μM. […] The four resulting solutions were diluted 4-fold in Opti-MEM without serum or phenol red to generate 5× solutions (5 µM and 0.5 µM tracer +/− 100 μM competing compound). To screen the library, a BioTek MultiFlo FX liquid dispenser was used to dispense 22.5 µL of tracer solution to the top 4 rows and 22.5 µL tracer + competing compound solution to the 4 bottom rows. Plates were briefly mixed on an orbital shaker and incubated for 1.5 h at room temperature. […] Plates were briefly mixed on an orbital shaker and incubated for 15 min to allow complementation.

T1 sequence (P25103 whole entry): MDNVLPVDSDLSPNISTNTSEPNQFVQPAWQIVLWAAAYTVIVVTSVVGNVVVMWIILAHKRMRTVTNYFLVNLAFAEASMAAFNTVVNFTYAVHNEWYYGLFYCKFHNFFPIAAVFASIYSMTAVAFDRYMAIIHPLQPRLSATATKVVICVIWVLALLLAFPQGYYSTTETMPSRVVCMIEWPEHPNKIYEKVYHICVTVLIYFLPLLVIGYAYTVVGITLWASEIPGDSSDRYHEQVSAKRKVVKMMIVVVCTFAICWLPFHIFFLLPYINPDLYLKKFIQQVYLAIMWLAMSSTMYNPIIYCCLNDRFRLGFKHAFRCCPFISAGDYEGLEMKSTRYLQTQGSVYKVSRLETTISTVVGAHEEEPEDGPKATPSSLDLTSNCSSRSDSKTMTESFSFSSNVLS

Structure (SMILES)	NanoBRET Fold Response (TACR1, tracer 0.1μM)	NanoBRET Fold Response (TACR1, tracer 1μM)	also measured
O=C(CCc1ccc2n1[B-](F)(F)[N+]1=C(c3ccc[nH]3)C=CC1=C2)NCc1ccc(C(=O)NCCOCCC(=O)N[C@@H]2CC[C@@]3(O)[C@H]4Cc5ccc(O)c6c5[C@@]3(CCN4CC3CC3)[C@H]2O6)cc1 [Naltrexone-3-NB590]	1.06	0.90	–
CN1CCN(C2=Nc3cc(Cl)ccc3N(CC(=O)NCCOCCOCCOCCOCCNC(=O)CCc3ccc4n3[B-](F)(F)[N+]3=C(c5ccc[nH]5)C=CC3=C4)c3ccccc32)CC1 [Clozapine-c-2-NB590]	–	–	NanoBRET Fold Response (TACR1, 0.1μM tracer): 0.99; NanoBRET Fold Response (TACR1, 1μM tracer): 0.96
O=C(CCOCCOCCOCCOCCNC(=O)CCc1ccc2n1[B-](F)(F)[N+]1=C(c3ccc[nH]3)C=CC1=C2)NCCCN1CCN(C2=Nc3cc(Cl)ccc3Nc3ccccc32)CC1 [Clozapine-a-2-NB590]	–	–	NanoBRET Fold Response (TACR1, 0.1μM tracer): 1.15; NanoBRET Fold Response (TACR1, 1μM tracer): 1.01
CCOC(=O)c1cc(C#N)c(N2CCC(C(=O)NS(=O)(=O)Cc3ccccc3/C=C/C(=O)NCCNC(=O)CCc3ccc4n3[B-](F)(F)[N+]3=C(c5ccc[nH]5)C=CC3=C4)CC2)nc1C [AZD1283-1-NB590]	–	–	NanoBRET Fold Response (TACR1, 0.1μM): 1.06; NanoBRET Fold Response (TACR1, 1μM): 1.09
COc1ccc2[nH]c(-c3ccc(CNC(=O)CCOCCOCCOCCOCCNC(=O)CCc4ccc5n4[B-](F)(F)[N+]4=C(c6ccc[nH]6)C=CC4=C5)cc3)c(CCNC(C)=O)c2n1 [AzomelatoninICO9-2-NB590]	–	–	NanoBRET Fold Response (0.1μM tracer): 1.08; NanoBRET Fold Response (1μM tracer): 0.85
COc1ccccc1N1CCN(CCCCN2C(=O)c3ccc(CNC(=O)CCOCCNC(=O)c4ccc(CNC(=O)CCc5ccc6n5[B-](F)(F)[N+]5=C(c7ccc[nH]7)C=CC5=C6)cc4)cc3C2=O)CC1 [NAN-190-3-NB590]	1.13	1.11	–
O=C(CCc1ccc2n1[B-](F)(F)[N+]1=C(c3ccc[nH]3)C=CC1=C2)NCc1ccc(C(=O)NCCOCCOCCNCC(O)COc2cccc3ccccc23)cc1 (stereo not shown) [Propranolol-3-NB590]	–	–	NanoBRET Fold Response (TACR1, 0.1μM): 0.99; NanoBRET Fold Response (TACR1, 1μM): 1.00
COc1ccc2c(n1)c(CCNC(C)=O)cn2CCNC(=O)CCc1ccc2n1[B-](F)(F)[N+]1=C(c3ccc[nH]3)C=CC1=C2 [Azamelatonin-1-NB590]	–	–	NanoBRET Fold Response (0.1μM tracer): 0.98; NanoBRET Fold Response (1μM tracer): 0.89
O=C(CCOCCOCCOCCOCCNC(=O)CCc1ccc2n1[B-](F)(F)[N+]1=C(c3ccc[nH]3)C=CC1=C2)NCCCN1CCN(C2=Nc3ccccc3Oc3ccc(Cl)cc32)CC1 [Loxapine-a-2-NB590]	1.06	1.12	–
COc1ccccc1N1CCN(CCCCN2C(=O)c3ccc(CNC(=O)CCOCCOCCOCCOCCNC(=O)CCc4ccc5n4[B-](F)(F)[N+]4=C(c6ccc[nH]6)C=CC4=C5)cc3C2=O)CC1 [NAN-190-2-NB590]	0.98	–	–
CC(C)N(CC[C@H](c1ccccc1)c1cc(CCNC(=O)c2ccc(CNC(=O)CCc3ccc4n3[B-](F)(F)[N+]3=C(c5ccc[nH]5)C=CC3=C4)cc2)ccc1O)C(C)C [Tolterodine-BZ-NB590]	0.93	1.01	–
O=C(CCc1ccc2n1[B-](F)(F)[N+]1=C(c3ccc[nH]3)C=CC1=C2)NCCOCCOCCNC(=O)OCCOCCN1CCN(C2=Nc3ccccc3Sc3ccccc32)CC1 [Quetiapine-a-2-NB590]	0.97	0.83	–
CN1CCN(C2=Nc3cc(Cl)ccc3Nc3ccc(CNC(=O)CCOCCOCCOCCOCCNC(=O)CCc4ccc5n4[B-](F)(F)[N+]4=C(c6ccc[nH]6)C=CC4=C5)cc32)CC1 [Clozapine-b-2-NB590]	–	–	NanoBRET Fold Response (TACR1, 0.1μM tracer): 1.06; NanoBRET Fold Response (TACR1, 1μM tracer): 1.08
CC(C)N(CC[C@H](c1ccccc1)c1cc(CCNC(=O)CCOCCOCCOCCOCCNC(=O)CCc2ccc3n2[B-](F)(F)[N+]2=C(c4ccc[nH]4)C=CC2=C3)ccc1O)C(C)C [Tolterodine-2-NB590]	1.16	1.01	–
CN(C)CCC=C1c2ccccc2CCc2ccc(C(=O)NCCNC(=O)CCOCCOCCOCCOCCNC(=O)CCc3ccc4n3[B-](F)(F)[N+]3=C(c5ccc[nH]5)C=CC3=C4)cc21 [Amitriptyline-a-2-NB590]	–	–	NanoBRET Fold Response (tracer at 0.1μM): 1.17; NanoBRET Fold Response (tracer at 1μM): 1.18
Cc1cc2c(s1)Nc1ccccc1N=C2N1CCN(CCCNC(=O)CCOCCOCCOCCOCCNC(=O)CCc2ccc3n2[B-](F)(F)[N+]2=C(c4ccc[nH]4)C=CC2=C3)CC1 [Olanzapine-a-2-NB590]	1.04	0.92	–
N#CN=C(NCCCOc1cccc(CN2CCCCC2)c1)NCCNC(=O)CCOCCOCCOCCOCCNC(=O)CCc1ccc2n1[B-](F)(F)[N+]1=C(c3ccc[nH]3)C=CC1=C2 [Aminopotentidine-2-NB590]	1.01	1.02	–
Cc1nc2n(c(=O)c1CCN1CCC(c3noc4cc(F)ccc34)CC1)CCCC2OC(=O)NCCOCCOCCOCCOCCNC(=O)CCc1ccc2n1[B-](F)(F)[N+]1=C(c3ccc[nH]3)C=CC1=C2 (stereo not shown) [Risperidone-2-NB590]	1.10	0.95	–
CN(C)CCC=C1c2ccccc2CCc2ccc(C(=O)NCCNC(=O)CCOCCOCCOCCOCCNC(=O)CCc3ccc4n3[B-](F)(F)[N+]3=C(c5ccc[nH]5)C=CC3=C4)cc21 [Amitriptyline-b-2-NB590]	–	–	NanoBRET Fold Response (tracer at 0.1μM, listed as amitriptyline-b-2-NB590): 1.45; NanoBRET Fold Response (tracer at 1μM, listed as amitriptyline-b-2-NB590): 1.07
